Measurements from patent US20120122860A1, “SOLID FORMS OF SULFONAMIDES AND AMINO ACIDS” (Plexxikon, Inc., priority 2009, published 2012).

Tests used:
[1] = target: B-Raf (Homo sapiens, UniProt P15056); test: Kinase activity assay, B-Raf; format: biochemical; conditions: read-out: activity toward kinase B-Raf, IC50
[2] = target: B-Raf V600E (Homo sapiens, UniProt P15056, V600E); test: Kinase activity assay, B-Raf V600E; format: biochemical; conditions: read-out: activity toward kinase B-Raf V600E, IC50
Sequence of B-Raf V600E (P15056 whole entry V600E): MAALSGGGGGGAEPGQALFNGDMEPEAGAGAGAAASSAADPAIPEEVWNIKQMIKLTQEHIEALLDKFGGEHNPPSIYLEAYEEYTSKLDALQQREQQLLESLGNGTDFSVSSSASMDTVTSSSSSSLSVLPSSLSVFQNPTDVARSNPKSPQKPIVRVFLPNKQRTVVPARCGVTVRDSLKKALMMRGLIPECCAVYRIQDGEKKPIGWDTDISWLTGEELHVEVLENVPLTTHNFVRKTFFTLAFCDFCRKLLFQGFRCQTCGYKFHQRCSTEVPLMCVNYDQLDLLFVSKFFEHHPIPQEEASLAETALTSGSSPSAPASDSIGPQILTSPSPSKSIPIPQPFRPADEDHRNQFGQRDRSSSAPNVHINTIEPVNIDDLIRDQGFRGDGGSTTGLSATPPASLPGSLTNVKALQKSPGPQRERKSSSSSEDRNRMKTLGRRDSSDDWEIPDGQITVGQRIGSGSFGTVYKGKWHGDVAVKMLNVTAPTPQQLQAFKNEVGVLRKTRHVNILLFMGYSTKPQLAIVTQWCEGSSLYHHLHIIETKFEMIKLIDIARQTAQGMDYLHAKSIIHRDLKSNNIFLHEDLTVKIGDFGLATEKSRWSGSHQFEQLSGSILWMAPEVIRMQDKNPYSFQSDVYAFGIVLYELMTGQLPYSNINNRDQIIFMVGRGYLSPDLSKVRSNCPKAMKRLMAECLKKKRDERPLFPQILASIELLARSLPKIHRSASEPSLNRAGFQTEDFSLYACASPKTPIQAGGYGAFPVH

[3] = target: Kdr (Homo sapiens, UniProt P35968); test: Kinase activity assay, Kdr
[4] = target: Src (Homo sapiens, UniProt P12931); test: Kinase activity assay, Src
Sequence of Src (P12931 whole entry): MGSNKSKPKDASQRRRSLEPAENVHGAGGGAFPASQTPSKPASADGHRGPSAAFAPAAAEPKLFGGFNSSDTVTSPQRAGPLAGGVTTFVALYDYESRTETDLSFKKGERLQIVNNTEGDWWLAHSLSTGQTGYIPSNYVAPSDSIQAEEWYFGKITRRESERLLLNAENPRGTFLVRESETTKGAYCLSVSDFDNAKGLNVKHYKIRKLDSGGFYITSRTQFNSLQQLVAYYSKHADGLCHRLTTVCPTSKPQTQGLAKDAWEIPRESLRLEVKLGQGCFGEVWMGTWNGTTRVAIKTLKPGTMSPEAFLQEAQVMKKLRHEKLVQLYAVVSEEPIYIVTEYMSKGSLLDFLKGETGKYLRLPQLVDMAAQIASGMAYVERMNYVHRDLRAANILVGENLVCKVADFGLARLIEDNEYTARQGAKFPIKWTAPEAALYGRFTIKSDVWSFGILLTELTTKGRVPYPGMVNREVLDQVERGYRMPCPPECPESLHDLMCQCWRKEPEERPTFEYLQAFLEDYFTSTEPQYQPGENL

[5] = target: TrkA (Homo sapiens, UniProt P04629); test: Kinase activity assay, TrkA
[6] = target: C-Raf (Homo sapiens, UniProt P04049); test: Kinase activity assay, C-Raf
Sequence of C-Raf (P04049 whole entry): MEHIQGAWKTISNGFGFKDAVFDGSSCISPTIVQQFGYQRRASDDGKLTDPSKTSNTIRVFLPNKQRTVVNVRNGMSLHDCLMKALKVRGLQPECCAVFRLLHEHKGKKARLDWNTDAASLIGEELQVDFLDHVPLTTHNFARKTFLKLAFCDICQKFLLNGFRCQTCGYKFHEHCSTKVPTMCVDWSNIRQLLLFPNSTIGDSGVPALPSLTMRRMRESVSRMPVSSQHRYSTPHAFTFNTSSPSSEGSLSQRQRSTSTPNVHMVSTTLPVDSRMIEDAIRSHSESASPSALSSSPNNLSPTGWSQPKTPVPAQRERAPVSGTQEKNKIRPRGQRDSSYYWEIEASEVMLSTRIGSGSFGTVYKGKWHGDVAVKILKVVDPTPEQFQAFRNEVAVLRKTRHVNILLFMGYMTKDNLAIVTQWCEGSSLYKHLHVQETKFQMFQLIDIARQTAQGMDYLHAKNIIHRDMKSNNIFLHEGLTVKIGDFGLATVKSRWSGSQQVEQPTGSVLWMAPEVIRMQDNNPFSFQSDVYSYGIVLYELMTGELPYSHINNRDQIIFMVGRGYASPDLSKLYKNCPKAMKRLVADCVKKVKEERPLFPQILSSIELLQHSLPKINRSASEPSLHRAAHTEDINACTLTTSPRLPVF

[7] = target: Btk (Homo sapiens, UniProt Q06187); test: Kinase activity assay, Btk
Sequence of Btk (Q06187 whole entry): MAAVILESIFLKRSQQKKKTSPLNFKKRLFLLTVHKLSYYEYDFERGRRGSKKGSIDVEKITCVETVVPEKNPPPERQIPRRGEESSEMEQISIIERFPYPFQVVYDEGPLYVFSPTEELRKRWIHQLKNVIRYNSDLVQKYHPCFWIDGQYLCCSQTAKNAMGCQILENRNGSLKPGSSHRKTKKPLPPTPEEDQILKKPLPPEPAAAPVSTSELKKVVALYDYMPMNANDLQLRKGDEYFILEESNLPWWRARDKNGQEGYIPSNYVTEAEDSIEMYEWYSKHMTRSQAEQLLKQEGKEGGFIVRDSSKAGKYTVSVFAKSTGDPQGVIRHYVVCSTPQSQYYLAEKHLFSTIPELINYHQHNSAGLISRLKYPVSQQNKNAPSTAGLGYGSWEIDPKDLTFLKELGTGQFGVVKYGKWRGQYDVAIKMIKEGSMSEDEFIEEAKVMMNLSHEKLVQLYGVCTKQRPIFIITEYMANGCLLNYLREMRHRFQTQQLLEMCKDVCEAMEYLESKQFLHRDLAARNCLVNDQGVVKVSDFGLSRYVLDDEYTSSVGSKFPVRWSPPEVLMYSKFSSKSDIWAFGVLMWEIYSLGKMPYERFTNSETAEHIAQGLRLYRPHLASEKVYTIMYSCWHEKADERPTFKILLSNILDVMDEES

[8] = target: Fms (Homo sapiens, UniProt P07333); test: Kinase activity assay, Fms
Sequence of Fms (P07333 20-972): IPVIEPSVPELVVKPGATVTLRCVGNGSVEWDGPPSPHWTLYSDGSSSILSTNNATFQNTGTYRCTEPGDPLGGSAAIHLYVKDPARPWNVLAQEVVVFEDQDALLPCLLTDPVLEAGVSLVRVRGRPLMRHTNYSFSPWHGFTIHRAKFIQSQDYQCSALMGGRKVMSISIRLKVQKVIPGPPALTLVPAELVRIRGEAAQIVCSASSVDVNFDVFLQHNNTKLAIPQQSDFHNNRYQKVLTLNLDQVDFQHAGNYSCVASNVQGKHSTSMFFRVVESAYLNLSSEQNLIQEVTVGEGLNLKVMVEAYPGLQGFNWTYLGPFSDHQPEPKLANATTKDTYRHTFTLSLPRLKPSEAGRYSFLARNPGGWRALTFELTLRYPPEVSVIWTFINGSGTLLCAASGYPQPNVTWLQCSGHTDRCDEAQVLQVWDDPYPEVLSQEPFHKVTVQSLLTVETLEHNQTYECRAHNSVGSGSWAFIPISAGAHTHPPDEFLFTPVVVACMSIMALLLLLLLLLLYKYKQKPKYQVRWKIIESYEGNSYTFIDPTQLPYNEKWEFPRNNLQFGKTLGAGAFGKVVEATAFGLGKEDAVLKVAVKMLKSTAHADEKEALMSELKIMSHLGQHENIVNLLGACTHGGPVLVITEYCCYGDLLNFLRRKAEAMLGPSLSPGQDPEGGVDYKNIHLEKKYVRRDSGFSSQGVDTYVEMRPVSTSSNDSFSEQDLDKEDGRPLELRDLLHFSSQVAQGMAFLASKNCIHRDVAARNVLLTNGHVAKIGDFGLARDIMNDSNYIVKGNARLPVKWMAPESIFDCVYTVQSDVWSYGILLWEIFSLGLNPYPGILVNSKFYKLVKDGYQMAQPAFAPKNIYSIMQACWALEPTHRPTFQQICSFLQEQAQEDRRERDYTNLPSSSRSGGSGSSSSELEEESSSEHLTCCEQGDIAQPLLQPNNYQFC

[9] = target: Kit (Homo sapiens, UniProt P10721); test: Kinase activity assay, Kit
[10] = target: T1, TEC (Homo sapiens, UniProt P42680); test: Kinase activity assay, TEC
T1 sequence (P42680 1-631): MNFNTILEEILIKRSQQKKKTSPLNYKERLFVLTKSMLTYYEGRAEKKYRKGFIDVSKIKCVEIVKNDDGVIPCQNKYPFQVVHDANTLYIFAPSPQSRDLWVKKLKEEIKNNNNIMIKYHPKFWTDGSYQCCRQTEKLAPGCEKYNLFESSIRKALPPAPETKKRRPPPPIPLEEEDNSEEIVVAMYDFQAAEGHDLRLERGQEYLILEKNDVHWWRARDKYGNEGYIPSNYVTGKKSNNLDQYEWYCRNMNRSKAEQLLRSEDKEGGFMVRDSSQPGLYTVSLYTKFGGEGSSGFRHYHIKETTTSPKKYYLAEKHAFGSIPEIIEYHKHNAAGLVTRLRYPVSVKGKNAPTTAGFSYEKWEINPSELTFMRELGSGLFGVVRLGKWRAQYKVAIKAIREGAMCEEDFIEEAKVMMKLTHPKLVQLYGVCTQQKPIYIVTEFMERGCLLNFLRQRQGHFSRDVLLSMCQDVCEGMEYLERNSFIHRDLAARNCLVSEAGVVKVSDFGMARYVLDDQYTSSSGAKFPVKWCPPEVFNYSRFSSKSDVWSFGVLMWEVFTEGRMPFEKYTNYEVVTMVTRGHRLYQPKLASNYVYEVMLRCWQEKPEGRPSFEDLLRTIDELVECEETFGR

[11] = target: Flt1 (Homo sapiens, UniProt P17948); test: Kinase activity assay, Flt1
Sequence of Flt1 (P17948 27-1338): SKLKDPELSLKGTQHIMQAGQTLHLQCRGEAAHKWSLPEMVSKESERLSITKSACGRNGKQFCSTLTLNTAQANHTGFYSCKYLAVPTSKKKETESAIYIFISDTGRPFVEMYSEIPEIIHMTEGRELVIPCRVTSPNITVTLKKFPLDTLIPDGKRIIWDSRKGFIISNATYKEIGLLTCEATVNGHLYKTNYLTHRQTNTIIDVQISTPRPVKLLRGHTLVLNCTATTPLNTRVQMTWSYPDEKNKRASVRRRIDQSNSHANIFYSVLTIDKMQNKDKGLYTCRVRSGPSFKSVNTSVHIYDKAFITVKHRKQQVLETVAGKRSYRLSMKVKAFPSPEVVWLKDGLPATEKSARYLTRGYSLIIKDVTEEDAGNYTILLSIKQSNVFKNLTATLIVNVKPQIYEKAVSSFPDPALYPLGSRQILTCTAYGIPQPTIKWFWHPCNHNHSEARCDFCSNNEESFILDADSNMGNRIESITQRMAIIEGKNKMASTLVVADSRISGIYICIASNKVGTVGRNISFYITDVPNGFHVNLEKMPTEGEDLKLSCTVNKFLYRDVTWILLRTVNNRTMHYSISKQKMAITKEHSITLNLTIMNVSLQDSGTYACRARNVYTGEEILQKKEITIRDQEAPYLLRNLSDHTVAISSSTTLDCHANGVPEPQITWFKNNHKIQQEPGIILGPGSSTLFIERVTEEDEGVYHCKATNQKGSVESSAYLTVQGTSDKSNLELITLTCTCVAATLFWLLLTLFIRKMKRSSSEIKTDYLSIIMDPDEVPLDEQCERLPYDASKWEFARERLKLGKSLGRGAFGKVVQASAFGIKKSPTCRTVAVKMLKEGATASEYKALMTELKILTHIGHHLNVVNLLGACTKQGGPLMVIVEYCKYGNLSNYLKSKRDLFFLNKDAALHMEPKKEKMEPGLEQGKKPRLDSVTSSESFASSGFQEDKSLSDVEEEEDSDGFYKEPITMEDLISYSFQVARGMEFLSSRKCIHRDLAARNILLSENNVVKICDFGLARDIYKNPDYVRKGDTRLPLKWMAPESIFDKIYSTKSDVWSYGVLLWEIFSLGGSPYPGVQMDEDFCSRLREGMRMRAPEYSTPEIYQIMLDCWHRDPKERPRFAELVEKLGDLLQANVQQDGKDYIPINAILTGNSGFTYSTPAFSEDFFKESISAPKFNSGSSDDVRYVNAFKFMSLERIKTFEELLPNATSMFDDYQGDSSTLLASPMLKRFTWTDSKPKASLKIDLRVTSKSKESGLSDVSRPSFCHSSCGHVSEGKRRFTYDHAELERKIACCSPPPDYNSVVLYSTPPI

[12] = target: PI3Kα (Homo sapiens, UniProt P42336); test: Kinase activity assay, PI3Kα
[13] = target: MAP4K4 (Homo sapiens, UniProt O95819); test: Kinase activity assay, MAP4K4

Measured: IC50

Sequence of B-Raf (P15056 whole entry): as the sequence (P15056 whole entry V600E) above, with E600V counted along it

COc1ccnc2[nH]cc(C(=O)c3cccc(NS(=O)(=O)c4ccc(C(F)(F)F)cc4)c3F)c12 [P-2060, N-[2-Fluoro-3-(4-methoxy-1H-pyrrolo[2,3-b]pyridine-3-carbonyl)-phenyl]-4-trifluoromethyl-benzenesulfonamide]
≤ 10 µM: [1] | [2] | [3] | [4] | [5] | [6]

CCCS(=O)(=O)Nc1ccc(F)c(C(=O)c2c[nH]c3ncc(-c4ccc(N)nc4)cc23)c1F [P-2214, Propane-1-sulfonic acid {3-[5-(6-amino-pyridin-3-yl)-1H-pyrrolo[2,3-b]pyridine-3-carbonyl]-2,4-difluoro-phenyl}-amide]
not listed: [5]
≤ 10 µM: all other assays above

CCCCS(=O)(=O)Nc1ccc(F)c(C(=O)c2c[nH]c3ncc(-c4cnn(C)c4)cc23)c1 [P-2432, Butane-1-sulfonic acid {4-fluoro-3-[5-(1-methyl-1H-pyrazol-4-yl)-1H-pyrrolo[2,3-b]pyridine-3-carbonyl]-phenyl}-amide]
not listed: [5] | [12]
≤ 10 µM: all other assays above

CCCS(=O)(=O)Nc1ccc(F)c(C(=O)c2c[nH]c3ncc(-c4ccc(NC(C)=O)nc4)cc23)c1F [P-2193, N-(5-{3-[2,6-Difluoro-3-(propane-1-sulfonylamino)-benzoyl]-1H-pyrrolo[2,3-b]pyridin-5-yl}-pyridin-2-yl)-acetamide]
not listed: [5] | [7] | [10]
≤ 10 µM: all other assays above

Cn1cc(-c2cnc3[nH]cc(C(=O)c4cc(NS(=O)(=O)C5CCCCC5)ccc4F)c3c2)cn1 [P-2434, Cyclohexanesulfonic acid {4-fluoro-3-[5-(1-methyl-1H-pyrazol-4-yl)-1H-pyrrolo[2,3-b]pyridine-3-carbonyl]-phenyl}-amide]
not listed: [5] | [12]
≤ 10 µM: all other assays above

O=C(c1c(F)ccc(NS(=O)(=O)C(F)(F)F)c1F)c1c[nH]c2ncc(-c3ccc(F)cc3)cc12 [P-2344, N-{2,4-Difluoro-3-[5-(4-fluoro-phenyl)-1H-pyrrolo[2,3-b]pyridine-3-carbonyl]-phenyl}-C,C,C-trifluoro-methanesulfonamide]
≤ 10 µM: [1] | [2] | [8] | [3] | [9] | [4] | [5]
